Measured values as given in US20260209214A1, “LSD1 MODULATORS” (RECURSION PHARMACEUTICALS, INC., priority 2022, published 2026).

Biological target: Recombinant human LSD1 (Homo sapiens, UniProt O60341)
Assay: LSD1 inhibition assay (HTRF LSD1 Histone H3K4 mono-demethylation assay, me1->me0)
Format: biochemical
Details: 20 nM recombinant human LSD1, 95 nM H3K4(me1) biotinylated peptide, 15 min preincubation, 60 min at 25° C., read-out: LSD1 inhibition IC50 (nM range)
Method: LSD1 biochemical activity was measured using the HTRF® LSD1 Histone H3K4 mono-demethylation assay (me1->me0). Briefly, the enzymatic buffer was prepared by addition of 50 mM Tris-HCl (Sigma cat #T2663-IL), 50 mM NaCl (ThermoFisher cat #AM9759) and 0.01% Tween 20 (ThermoFisher cat #J20605.AP) in distilled water (final pH 8.5). This buffer was supplemented with 10 μM FAD (Fisher Scientific cat #11411838) and 1 mM DTT (Sigma cat #D0632). For the assay, H3K4(me1) biotinylated peptide substrate (Anaspec, cat #64355) was added to provide a final assay concentration of 95 nM. The streptavidin-XL665 (Cisbio cat #610SAXLA) and H3K4 me0-Eu(K) antibody-cryptate (Cisbio, cat #61 KAOKAD) detection reagents were mixed according to the manufacturer's instructions. Test compounds were diluted in DMSO in a series of 10 semi-log step doses; 10 nL of each compound dose were dispensed in 384 well plates. Recombinant human LSD1 was diluted into enzymatic buffer to provide a final assay concentration of 20 nM and added to the tested compounds for 15 minutes. The reaction was started by addition of the substrate and incubated at 25° C. for 60 minutes. The detection reagents were added, and the plate was incubated in the dark for 90 minutes. Fluorescence was measured on an Envision 2103 plate reader with optical setup for […] in the HTRF mode. The ratio of acceptor and donor emission signals was calculated for each well. Percent inhibition values were calculated from the HTRF ratios at different doses and fitted to a 4-parameter logistic curve to determine IC50 values. […]

Compound | IC50 [nM]
C[C@@]1(O)C[C@H]2CN(c3ccc(CC4CNCCO4)cc3-c3ccc(C#N)c(F)c3)C[C@H]2C1 (mixture of isomers) [Example 114, 2′-[(3aR,5S,6aS)-5-hydroxy-5-methyl-octahydrocyclopenta[c]pyrrol-2-yl]-3-fluoro-5′-[(morpholin-2-yl)methyl]-[1,1′-biphenyl]-4-carbonitrile] | 100 to 1000
N#Cc1ccc(-c2cccc(CN3[C@@H]4CC[C@H]3[C@@H](N)C4)c2-c2ccns2)cc1 (racemic) [Example 170, 3'-{[(1S,2S,4R)-2-amino-7-azabicyclo[2.2.1]heptan-7-yl]methyl}-2'-(1,2-thiazol-5-yl)-[1,1'-biphenyl]-4-carbonitrile] | 10 to 25
CN[C@H]1C[C@H]2CC[C@@H]1N2Cc1cccc(-c2ccc(C#N)c(F)c2)c1C1CC1 (racemic) [Example 175] | 10 to 25
N#Cc1ccc(-c2cccc(CN3[C@@H]4CC[C@H]3[C@@H](N)C4)c2C2CC2)cc1F (racemic) [Example 176, 3'-{[(1S,2S,4R)-2-amino-7-azabicyclo[2.2.1]heptan-7-yl]methyl}-2'-cyclopropyl-3-fluoro-[1,1'-biphenyl]-4-carbonitrile] | 25 to 100
N#Cc1ccc(-c2cccc(CN3[C@@H]4CC[C@H]3[C@@H](N)C4)c2OC(F)F)cc1F (racemic) [Example 179, 3'-{[(1S,2S,4R)-2-amino-7-azabicyclo[2.2.1]heptan-7-yl]methyl}-2'-(difluoromethoxy)-3-fluoro-[1,1'-biphenyl]-4-carbonitrile] | 10 to 25
COc1c(CN2[C@@H]3CC[C@H]2[C@@H](N)C3)cccc1-c1ccc(C#N)c(F)c1 (racemic) [Example 180, 3'-{[(1S,2S,4R)-2-amino-7-azabicyclo[2.2.1]heptan-7-yl]methyl}-3-fluoro-2'-methoxy-[1,1'-biphenyl]-4-carbonitrile] | 25 to 100
N#Cc1ccc(-c2ccc(F)c(CN3[C@@H]4CC[C@H]3[C@@H](N)C4)c2C2CC2)cc1F (racemic) [Example 181, N[C@@H]1C[C@@H]2CC[C@H]1N2Cc3c(F)ccc(c4ccc(C#N)c(F)c4)c3C5CC5] | 10 to 25
N#Cc1ccc(-c2cccc(CN3[C@@H]4CC[C@H]3[C@@H](N)C4)c2C2CC2)cc1 (racemic) [Example 191, 3'-{[(1S,2S,4R)-2-amino-7-azabicyclo[2.2.1]heptan-7-yl]methyl}-2'-cyclopropyl-[1,1'-biphenyl]-4-carbonitrile] | 25 to 100
N#Cc1ccc(-c2cccc(CN3[C@@H]4CC[C@H]3[C@@H](N)C4)c2C(F)(F)F)cc1F (racemic) [Example 200, 3'-{[(1S,2S,4R)-2-amino-7-azabicyclo[2.2.1]heptan-7-yl]methyl}-3-fluoro-2'-(trifluoromethyl)-[1,1'-biphenyl]-4-carbonitrile] | 25 to 100
N#Cc1ccc(-c2cccc(CN3[C@@H]4CC[C@H]3[C@@H](N)C4)c2N2CCC2)cc1F (racemic) [Example 203, 3'-{[(1S,2S,4R)-2-amino-7-azabicyclo[2.2.1]heptan-7-yl]methyl}-2'-(azetidin-1-yl)-3-fluoro-[1,1'-biphenyl]-4-carbonitrile] | 25 to 100
CC1(C)CN(c2ccc(CN3[C@@H]4CC[C@H]3[C@@H](N)C4)cc2-c2ccc(C#N)c(F)c2)C1 (racemic) [Example 206, 5'-{[(1S,2S,4R)-2-amino-7-azabicyclo[2.2.1]heptan-7-yl]methyl}-2'-(3,3-dimethylazetidin-1-yl)-3-fluoro-[1,1'-biphenyl]-4-carbonitrile] | 10 to 25
N#Cc1ccc(-c2ccc(F)c(CN3[C@@H]4CC[C@H]3[C@@H](N)C4)c2-c2ccns2)cc1F (racemic) [Example 207, 3'-{[(1S,2S,4R)-2-amino-7-azabicyclo[2.2.1]heptan-7-yl]methyl}-3,4'-difluoro-2'-(1,2-thiazol-5-yl)-[1,1'-biphenyl]-4-carbonitrile] | < 10
COCC1CCN(c2ccc(CN3[C@@H]4CC[C@H]3[C@@H](N)C4)cc2-c2ccc(C#N)c(F)c2)CC1 (racemic) [Example 209, 5'-{[(1S,2S,4R)-2-amino-7-azabicyclo[2.2.1]heptan-7-yl]methyl}-3-fluoro-2'-[4-(methoxymethyl)piperidin-1-yl]-[1,1'-biphenyl]-4-carbonitrile] | 10 to 25
CC(C)Oc1c(CN2[C@@H]3CC[C@H]2[C@@H](N)C3)cccc1-c1ccc(C#N)c(F)c1 (racemic) [Example 213] | 25 to 100
N#Cc1ccc(-c2cccc(CN3[C@@H]4CC[C@H]3[C@@H](N)C4)c2C2CCC2)cc1F (racemic) [Example 218, 3'-{[(1S,2S,4R)-2-amino-7-azabicyclo[2.2.1]heptan-7-yl]methyl}-2'-cyclobutyl-3-fluoro-[1,1'-biphenyl]-4-carbonitrile] | 10 to 25
CC(C)c1c(CN2[C@@H]3CC[C@H]2[C@@H](N)C3)cccc1-c1ccc(C#N)c(F)c1 (racemic) [Example 220, 3'-{[(1S,2S,4R)-2-amino-7-azabicyclo[2.2.1]heptan-7-yl]methyl}-3-fluoro-2'-(propan-2-yl)-[1,1'-biphenyl]-4-carbonitrile] | 25 to 100
COc1ccc(-c2ccc(CN3[C@@H]4CC[C@H]3[C@@H](N)C4)cc2-c2ccc(C#N)c(F)c2)cc1F (racemic) [Example 222, 4-(4-{[(1S,2S,4R)-2-amino-7-azabicyclo[2.2.1]heptan-7-yl]methyl}-3'-fluoro-4'-methoxy-[1,1'-biphenyl]-2-yl)-2-fluorobenzonitrile] | 10 to 25
N#Cc1ccc(-c2cc(CN3[C@@H]4CC[C@H]3[C@@H](N)C4)ccc2N2CCC3(CCCO3)CC2)cc1F (racemic) [Example 224, 5'-{[(1S,2S,4R)-2-amino-7-azabicyclo[2.2.1]heptan-7-yl]methyl}-3-fluoro-2'-{1-oxa-8-azaspiro [4.5]decan-8-yl}-[1,1'-biphenyl]-4-carbonitrile] | 10 to 25
C[C@]1(N)C[C@H]2CC[C@@H]1N2Cc1cccc(-c2ccc(C#N)c(F)c2)c1C1CC1 (racemic) [Example 229, 3'-{[(1S,2S,4R)-2-amino-2-methyl-7-azabicyclo[2.2.1]heptan-7-yl]methyl}-2'-cyclopropyl-3-fluoro-[1,1'-biphenyl]-4-carbonitrile] | 25 to 100
COc1ccc(-c2ccc(CN3[C@@H]4CC[C@H]3[C@@H](N)C4)cc2-c2ccc(C#N)c(F)c2)cn1 (racemic) [Example 230, 5'-{[(1S,2S,4R)-2-amino-7-azabicyclo[2.2.1]heptan-7-yl]methyl}-3-fluoro-2'-(6-methoxypyridin-3-yl)-[1,1'-biphenyl]-4-carbonitrile] | 10 to 25
N#Cc1ccc(-c2cc(CN3[C@@H]4CC[C@H]3[C@@H](N)C4)ccc2OC[C@@H]2CCCOC2)cc1F (racemic) [Example 231, 5'-{[(1S,2S,4R)-2-amino-7-azabicyclo[2.2.1]heptan-7-yl]methyl}-3-fluoro-2'-{[(3R)-oxan-3-yl]methoxy}-[1,1'-biphenyl]-4-carbonitrile] | 10 to 25
COC1(C)CCN(c2ccc(CN3[C@@H]4CC[C@H]3[C@@H](N)C4)cc2-c2ccc(C#N)c(F)c2)CC1 (racemic) [Example 232, 5'-{[(1S,2S,4R)-2-amino-7-azabicyclo[2.2.1]heptan-7-yl]methyl}-3-fluoro-2'-(4-methoxy-4-methylpiperidin-1-yl)-[1,1'-biphenyl]-4-carbonitrile] | 10 to 25
N#Cc1ccc(-c2cc(CN3[C@@H]4CC[C@H]3[C@@H](N)C4)ccc2N2CCC(CF)CC2)cc1F (racemic) [Example 235, 5'-{[(1S,2S,4R)-2-amino-7-azabicyclo[2.2.1]heptan-7-yl]methyl}-3-fluoro-2'-[4-(fluoromethyl)piperidin-1-yl]-[1,1'-biphenyl]-4-carbonitrile] | 10 to 25
N#Cc1ccc(-c2cccc(CN3[C@@H]4CC[C@H]3[C@@H](N)C4)c2N2CCC(F)CC2)cc1F (racemic) [Example 241, 3'-{[(1S,2S,4R)-2-amino-7-azabicyclo[2.2.1]heptan-7-yl]methyl}-3-fluoro-2'-(4-fluoropiperidin-1-yl)-[1,1'-biphenyl]-4-carbonitrile] | 100 to 1000
N#Cc1ccc(-c2cccc(CN3[C@@H]4CC[C@H]3[C@@H](N)C4)c2-c2cccs2)cc1F (racemic) [Example 243, 3'-{[(1S,2S,4R)-2-amino-7-azabicyclo[2.2.1]heptan-7-yl]methyl}-3-fluoro-2'-(thiophen-2-yl)-[1,1'-biphenyl]-4-carbonitrile] | 25 to 100
N#Cc1ccc(-c2cccc(CN3[C@@H]4CC[C@H]3[C@@H](N)C4)c2-c2ccsc2)cc1F (racemic) [Example 244, 3'-{[(1S,2S,4R)-2-amino-7-azabicyclo[2.2.1]heptan-7-yl]methyl}-3-fluoro-2'-(thiophen-3-yl)-[1,1'-biphenyl]-4-carbonitrile] | 25 to 100
